# Tests used:
# DYRK1A = DYRK1A (Homo sapiens, UniProt Q13627); assay: KINOMEscan qPCR-based binding assay; settings: for fold improvement in DYRK1A binding (Kd) as compared to hit 3–1: ratio of Kd
# human β-cell [1] = assay: Human β-cell proliferation assay; assay type: cell-based; settings: 5 μM, 96 hours, KI67 labeling of insulin-labeled cells, compared to vehicle-treated cells
# human β-cell [2] = settings: cited from earlier work
structure (smiles),measurement,setting,value
"O=c1[nH]c2ccc(C3=NN=C(NCc4cccnc4)SC3)cc2[nH]1 [3–13, N-(pyridine-3yl)methyl-5-(benzo[d]imidazol-2(3H)-one)-6H-1,3,4-thiadiazin-2-amine]",fold improvement in DYRK1A binding (Kd) as compared to hit 3–1,DYRK1A,5 fold
"CC(NC1=NN=C(c2ccc3[nH]c(=O)[nH]c3c2)CS1)c1ccccc1 (centres unmarked) [3–16, N-(1-phenylethyl)-5-(benzo[d]imidazol-2(3H)-one)-6H-1,3,4-thiadiazin-2-amine]",fold improvement in DYRK1A binding (Kd) as compared to hit 3–1,DYRK1A,4 fold
"O=c1[nH]c2ccc(C3=NN=C(NCc4ccc(F)cc4)SC3)cc2[nH]1 [Compound 3–5, N-(4-fluorobenzyl)-5-(benzo[d]imidazol-2(3H)-one)-6H-1,3,4-thiadiazin-2-amine]",human β-cell proliferation,human β-cell [1],induced human β-cell proliferation
"COc1ccc2c(c1)[nH]c1c(C)nccc12 [Harmine, reference compound]","% DMSO Ctrl, DYRK1A",DYRK1A,< 1%
same,fold induction in human pancreatic β-cell proliferation,human β-cell [2],10–15 fold
